In test [1] the test system is 4T1 murine breast cancer cells. Put plainly: Ectopic 4T1 homografts in BALBc mice: tumor size and survival after TOL. In kind it is in vivo, mouse. Conditions: paclitaxel 20 mg/kg i.p. post-inoculation day 5; TOL: digoxin 3 mg/kg x8 + 4x30 min PEF 18 V/m on 2 successive days; n=12; FIG. 7. How it is done:
FIG. 4 illustrates the average size of 4T1 homographs seen before and after each single treatment with TOL in which the duration of each of four exposures to PEFs of 18 V/m varied from 5-60 minutes (n=15). […] Further increase in stimulation duration had less of an effect on tumor reduction. Optimum tumor reduction is observed when the mice are exposed to a PEF for 30 minutes, or a range of exceeding 15 minutes and less than 60 minutes.
FIG. 6 depicts in vivo validation of the therapeutic efficacy of pulsed electric fields (PEFs) inducing osmotic lysis in a breast cancer mouse model. Ectopic homografts of 4T1 murine breast cancer cells were established in female, immune competent BALBc mice (n=12). The “TOL” group was injected with digoxin (7 mg/kg) and then exposed to the PEFs generated by a ring device. […] Tumor size was measured daily, beginning on Day 0 (first day of treatment) and every other day after Day 3 until NIH humane endpoint criteria were met for euthanasia.
FIG. 7 depicts in vivo validation of the therapeutic efficacy of pulsed electric fields (PEFs) inducing osmotic lysis in comparison to paclitaxel in a breast cancer mouse model. […] Homografts were measured on post-inoculation day 6 (treatment day 0), and again on post-treatment days 1 and 2 and then every other day until the criteria for humane endpoint euthanasia was met. […]

Test [2] relates to voltage gated sodium channel (VGSC). Put plainly: Immunohistochemical labeling of VGSC in 4T1 homografts. The class given is in vivo, mouse. Conditions: 1 and 2 days after treating with paclitaxel; FIG. 8. The source says: FIGS. 5A-5C depict the immunohistochemical labeling of voltage gated sodium channel (VGSC) in 4T1 homografts before (FIG. 5A) and after (FIG. 5B) a single 2-day treatment with TOL. Nuclei are counterstained with DRAQ5™ fluorescent probe. […] Low power calibration bar in FIG. 5B is 50 μm and the high power calibration bar in the inset is 25 μm. […] This observation may explain, in part the loss of TOL's efficacy that is observed after the first 2 days of treatment.
FIGS. 8A-8D depicts the immunohistochemical labeling of VGSC in 4T1 homografts before (FIG. 8A), 1 (FIG. 8B) and 2 days (FIG. 8C) after treating with paclitaxel. Nuclei are counterstained with DRAQ5. […] Low power calibration bar in FIG. 8B is 50 μm and the high power calibration bar in the inset in FIG. 8C is 25 μm. […] It is noted that there is a progressive reduction of VGSC labeling but not in the number of cells that express the highest levels of VGSC. […] The decrease in expression of VGSC is likely to contribute in the reduced efficacy of TOL when used concurrently with paclitaxel.

Turning to `CC(=O)O[C@H]1C(=O)[C@@]2(C)[C@H]([C@H](OC(=O)c3ccccc3)[C@]3(O)C[C@H](OC(=O)[C@H](O)[C@@H](NC(=O)c4ccccc4)c4ccccc4)C(C)=C1C3(C)C)[C@]1(OC(C)=O)CO[C@@H]1C[C@@H]2O` [paclitaxel], the “time from inoculation to humane endpoint euthanasia (survival)” value in test [1] is “no significant effect on survival over controls”. Moreover, the VGSC expression result in test [2] is “decreases significantly and progressively”.

Source of the values: patent US12721894B2, “Method and system for applying pulsed electric fields with high uniformity using charged ring structures” (The Phantom Laboratory, Incorporated, priority 2020, dated 2026).
